These results are taken from ChEMBL document CHEMBL5543130, “Design, Synthesis, and In Vivo Evaluation of Isosteviol Derivatives as New SIRT3 Activators with Highly Potent Cardioprotective Effects” (J Med Chem, 2024).

The structures appear in SMILES notation. Converted amounts (≈) assume the structure as drawn. The source made the active and inactive calls. The rule behind the calls is not given here.

Usually solubility stands for how much of the substance goes into solution per volume. Higher therefore signals a readily soluble substance.

The subject of series [1] is Danio rerio. Briefly: Cardioprotective activity against doxorubicin-induced Zebrafish cardiomyopathy model assessed as survival rate at 5 to 15 uM fertilized for 24 hrs followed by compound administration for 72 hrs and measured at 96 hrs post fertilization by inverted fluorescence microscopic analysis. To be noted: dose 5-15 µM. Type of series: functional.
For series [2], the species on record is Danio rerio. Briefly: Cardioprotective activity against doxorubicin-induced Tg(cmlc2: GFP) Zebrafish assessed as reduction in cTnT mRNA level measured at 72 hrs post fertilization by qPCR analysis. The class given is functional, organism-based. The note with it: dose <= 5.0 µM.
For series [3], the system named is Danio rerio. Put plainly: Cardioprotective activity against doxorubicin-induced Tg(cmlc2: GFP) Zebrafish assessed as […] at 5 uM measured at 72 hrs post fertilization. Type of series: functional, organism-based.
In series [4] the test system is Danio rerio. Put plainly: Cardioprotective activity against doxorubicin-induced Zebrafish cardiomyopathy model assessed as survival rate at 5 uM fertilized for 24 hrs followed by compound administration for 72 hrs and measured at 96 hrs post fertilization by inverted fluorescence microscopic analysis. The class given is functional. To be noted: for survival at 5 µM: Danio rerio.

Series [5] is filed under the species Danio rerio. Put plainly: Cardioprotective activity against doxorubicin-induced Tg(cmlc2: GFP) Zebrafish assessed as reduction in Bnp mRNA level measured at 72 hrs post fertilization by qPCR analysis. The class given is functional, organism-based. (In general: Real-time PCR tracks product formation cycle by cycle.)
Series [6] is filed under the species Danio rerio. Put plainly: Cardioprotective activity against doxorubicin-induced Tg(cmlc2: GFP) Zebrafish assessed as restoration of normal heart structure at 5 uM measured at 72 hrs post fertilization. Type of series: functional, organism-based.
Series [7] can be described thus: Toxicity in zebrafish embryos assessed as survival at upto 40 uM fertilized for 24 hrs followed by compound administration for 72 hrs and measured at 96 hrs post fertilization. Details: species or system Danio rerio. To be noted: in vivo.
Series [8] is filed under the species Danio rerio. Put plainly: Cardioprotective activity against doxorubicin-induced Tg(cmlc2: GFP) Zebrafish assessed as reduction in Anp mRNA level measured at 72 hrs post fertilization by qPCR analysis. Type of series: functional, organism-based. The note with it: dose <= 5.0 µM.
The subject of series [9] is Danio rerio. Put plainly: Cardioprotective activity against doxorubicin-induced Zebrafish cardiomyopathy model at 5 to 15 uM fertilized for 24 hrs followed by compound administration for 72 hrs and measured at 96 hrs post fertilization by inverted fluorescence microscopic analysis. Type of series: functional, organism-based. The note with it: dose 5-15 µM.
A short description of series [10]: Water solubility of the compound measured for 24 hrs by HPLC analysis. The class given is physicochemical.
The subject of series [11] is Danio rerio. Briefly: Cardioprotective activity against doxorubicin-induced Zebrafish cardiomyopathy model assessed as survival rate at 15 uM fertilized for 24 hrs followed by compound administration for 72 hrs and measured at 96 hrs post fertilization by inverted fluorescence microscopic analysis. Type of series: functional.

Turning to `COc1cccc(C(=O)N2CCN(C(=O)[C@]3(C)CCC[C@@]4(C)[C@@H]5CC[C@@]6(C)C[C@]5(CC[C@@H]43)CC6=O)CC2)c1OC`, the Survival in series [1] was found to be 86%.
For the compound `C[C@@]12CC[C@@H]3[C@@](CC[C@H]4[C@@]3(C)CCC[C@@]4(C)C(=O)N3CCN(C(=O)C4=C(C(=O)O)CCCC4)CC3)(CC1=O)C2`, the Activity result in series [2] was “Dose-Dependent Effect”; in series [4], 85%; in series [5], “Dose-Dependent Effect”; in [7] it was “Non-Toxic”; in [8], “Dose-Dependent Effect”. The result in series [3] and in series [6] was Active.
With `C[C@@]12CC[C@@H]3[C@@](CC[C@H]4[C@@]3(C)CCC[C@@]4(C)C(=O)N3CCN(C(=O)CCCC(=O)O)CC3)(CC1=O)C2`, the outcome in series [9] was Active.
Still for that read-out and setting: with `CC(C)(C)OC(=O)N1CCN(C(=O)[C@]2(C)CCC[C@@]3(C)[C@@H]4CC[C@@]5(C)C[C@]4(CC[C@@H]32)CC5=O)CC1` the entry was “Active”; with `C[C@@]12CC[C@@H]3[C@@](CC[C@H]4[C@@]3(C)CCC[C@@]4(C)C(=O)N3CCNCC3)(CC1=O)C2`, “Active”.
In the case of `C[C@@]12CC[C@@H]3[C@@](CC[C@H]4[C@@]3(C)CCC[C@@]4(C)C(=O)N3CCN(C(=O)c4ccccc4C(=O)O)CC3)(CC1=O)C2`, in series [1], the Survival is 50%. In addition, in series [4], the survival at 5 µM was found to be 50%. Also, the Activity entry in series [7] is reported as “Non-Toxic”. In series [10], this compound had a solubility at 24 h of 940 µg/mL (≈ 1760 µM).
Take `CC1CCCC(C(=O)O)C1C(=O)N1CCN(C(=O)[C@]2(C)CCC[C@@]3(C)[C@@H]4CC[C@@]5(C)C[C@]4(CC[C@@H]32)CC5=O)CC1` (some centres undefined): the outcome in series [9] was Active.
As to `C[C@@]12CC[C@@H]3[C@@](CC[C@H]4[C@@]3(C)CCC[C@@]4(C)C(=O)N3CCN(C(=O)/C=C/C(=O)O)CC3)(CC1=O)C2`, the outcome in [9] was Active. Besides, the survival at 15 µM in series [11] turned out to be 50%.
On to `C[C@@]12CC[C@@H]3[C@@](CC[C@H]4[C@@]3(C)CCC[C@@]4(C)C(=O)N3CCN(C(=O)CCC(=O)O)CC3)(CC1=O)C2`, for which the outcome in series [9] was Active. The survival at 15 µM in [11] was 50%. The survival at 5 µM in [4] worked out at 50%.
Consider `CC(CC(=O)O)C(=O)N1CCN(C(=O)[C@]2(C)CCC[C@@]3(C)[C@@H]4CC[C@@]5(C)C[C@]4(CC[C@@H]32)CC5=O)CC1` (some centres undefined), for which, in [9], the result was Active.
Same read-out and setting: in the case of `CC(C)(CC(=O)O)C(=O)N1CCN(C(=O)[C@]2(C)CCC[C@@]3(C)[C@@H]4CC[C@@]5(C)C[C@]4(CC[C@@H]32)CC5=O)CC1` it was “Active”.
Take `C[C@@]12CC[C@@H]3[C@@](CC[C@H]4[C@@]3(C)CCC[C@@]4(C)C(=O)N3CCN(C(=O)COCC(=O)O)CC3)(CC1=O)C2`: the result in series [9] was Active.
